These compounds were tested against RAF proto-oncogene serine/threonine-protein kinase (Homo sapiens, UniProt P04049) (assay: Inhibition of Raf-1).
Chain of RAF proto-oncogene serine/threonine-protein kinase (P04049 whole entry): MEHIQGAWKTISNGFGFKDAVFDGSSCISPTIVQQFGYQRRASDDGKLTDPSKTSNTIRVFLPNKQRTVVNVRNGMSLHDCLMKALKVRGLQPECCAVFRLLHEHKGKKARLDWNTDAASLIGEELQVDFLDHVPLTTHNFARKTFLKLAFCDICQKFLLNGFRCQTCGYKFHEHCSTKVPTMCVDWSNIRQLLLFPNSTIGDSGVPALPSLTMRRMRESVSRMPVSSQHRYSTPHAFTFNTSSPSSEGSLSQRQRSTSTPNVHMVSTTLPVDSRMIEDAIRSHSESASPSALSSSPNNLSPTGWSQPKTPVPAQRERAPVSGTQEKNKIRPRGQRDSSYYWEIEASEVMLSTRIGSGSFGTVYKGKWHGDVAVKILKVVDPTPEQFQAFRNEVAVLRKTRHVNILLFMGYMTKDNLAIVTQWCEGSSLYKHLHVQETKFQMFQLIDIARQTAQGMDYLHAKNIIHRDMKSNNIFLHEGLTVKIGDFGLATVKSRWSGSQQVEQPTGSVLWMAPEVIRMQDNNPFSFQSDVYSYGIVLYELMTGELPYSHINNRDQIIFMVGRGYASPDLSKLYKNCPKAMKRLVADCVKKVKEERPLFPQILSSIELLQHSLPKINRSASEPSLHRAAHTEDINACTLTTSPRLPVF

| Compound | IC50 |
| --- | --- |
| CC(C)(C)c1cc(NC(=O)Nc2ccc(Oc3ccccc3)c(C(F)(F)F)c2)no1 | 9500 nM |
| Cc1cccc(Oc2ccc(NC(=O)Nc3cc(C(C)(C)C)on3)cc2)c1 | 1000 nM |
| COc1c(Cl)cccc1NC(=O)Nc1ccc(Oc2ccncc2)cc1 | 2700 nM |
| COc1cccc(Oc2ccc(NC(=O)Nc3cc(C(C)(C)C)on3)cc2)c1 | 700 nM |
| COC(=O)c1c(NC(=O)Nc2ccc(C)cc2)cc(C(C)(C)C)n1C | 5000 nM |
| CC(C)(C)c1cc(NC(=O)Nc2ccc(C(O)c3ccncc3)cc2)no1 (stereo not given) | 1500 nM |
| CC(C)(C)c1cc(NC(=O)Nc2ccc(Oc3ccc(C(=O)O)cc3)cc2)no1 | 4400 nM |
| Cn1nc(C(C)(C)C)cc1NC(=O)Nc1ccc(Oc2ccncc2)cc1 | 800 nM |
| CNC(=O)c1ccc(Oc2ccc(NC(=O)Nc3cc(C(C)(C)C)on3)cc2)cc1 | 1100 nM |
| COc1cc([N+](=O)[O-])ccc1NC(=O)Nc1ccc(Oc2ccncc2)cc1 | 4400 nM |
| COC(=O)c1sc(C(C)(C)C)cc1NC(=O)Nc1ccc(O)cc1 | 18000 nM |
| Cc1c(NC(=O)Nc2cc(C(C)(C)C)on2)ccc(Oc2ccccc2)c1C | 650 nM |
| CC(=O)Nc1cccc(Oc2ccc(NC(=O)Nc3cc(C(C)(C)C)on3)cc2C(F)(F)F)c1 | 10000 nM |
| Cc1cc(Oc2ccccc2)ccc1NC(=O)Nc1cc(C(C)(C)C)on1 | 1400 nM |
| CNS(=O)(=O)c1cccc(Oc2ccc(NC(=O)Nc3cc(C(C)(C)C)on3)cc2)c1 | 7500 nM |
| CC(=O)c1cccc(Oc2ccc(NC(=O)Nc3cc(C(C)(C)C)on3)cc2)c1 | 820 nM |
| CC(C)(C)c1cccc(NC(=O)Nc2ccc(Oc3ccncc3)cc2)c1 | 870 nM |

Stronger by IC50, values ahead:

| IC50 | Compound |
| --- | --- |
| 590 nM | CC(C)(C)c1cc(NC(=O)Nc2ccc(Cc3ccncc3)cc2)no1 |
| 500 nM | COc1ccc(Oc2ccc(NC(=O)Nc3cc(C(C)(C)C)on3)cc2)cc1 |
| 440 nM | COc1cccc(NC(=O)Nc2ccc(Oc3ccncc3)cc2)c1 |
| 230 nM | CN(C)c1ccc(NC(=O)c2cc(Oc3ccc(NC(=O)Nc4ccc(Cl)c(C(F)(F)F)c4)cc3)ccn2)cc1 |
| 160 nM | O=C(Nc1ccc(Oc2ccnc(C(=O)Nc3ccc(N4CCOCC4)cc3)c2)cc1)Nc1ccc(Cl)c(C(F)(F)F)c1 |
| 120 nM | CC(C)(C)c1cc(NC(=O)Nc2ccc(Oc3ccncc3)cc2)on1 |
| 88 nM | CCNC(=O)c1cc(Oc2ccc(NC(=O)Nc3cc(C(F)(F)F)c(Cl)cc3OC)cc2)ccn1 |
| 44 nM | O=C(Nc1ccc(Oc2ccnc(C(=O)Nc3cccnc3)c2)cc1)Nc1ccc(Cl)c(C(F)(F)F)c1 |
